Assay results from EPA's ToxValDB 9.5.
Values joined by “and” are separate entries in the source; they are usually repeats but may differ in a detail not shown here. Equal values may be shown once.

Tests used:
Mus musculus = details: oral
Rattus norvegicus = details: oral
[1] = developmental, duration: 17 days, F, B6C3F1, Developmental: 42.5% reduced NK cell activity in male pups at 8 weeks of age
[2] = reproduction developmental, duration: 17 days, F, CD1, Endocrine: Decreased total T4 on GD 6
[3] = short-term, duration: 21 days, M, CD1, Body Weight: ~15% reduced body weight + Reproductive: ~17% reduced serum testosterone, ~38% reduced epididymal sperm count
[4] = short-term, duration: 28 days, M, B6C3F1, Immunotoxicological: Suppressed response to sRBC (~60%)
[5] = subchronic, duration: 60 days, M, Immunotoxicological: Impaired response to sRBC
[6] = chronic, duration: 14 weeks, M, Sprague-Dawley, Hematological: 45% increase in non-segmented neutrophils
[7] = chronic, duration: 104 weeks, F, Sprague-Dawley, Body Weight: 14% reduction in final body weight
[8] = chronic, duration: 104 weeks, M, Sprague-Dawley, Hepatic: Hepatocellular hypertrophy at ?0.1 mg/kg/day / single cell necrosis and cystic degeneration at […]
[9] = developmental, duration: 20 days, Sprague-Dawley, Developmental: Reduced serum T4 in pups at 1 mg/kg/day / approximately 60% survival at weaning versus 80% in controls at 2 mg/kg/day
[10] = developmental, duration: 21 days, F, Sprague-Dawley, Developmental: ~30% increased locomotor activity and concurrent failure to habituate to test environment in male pups on PND 17
[11] = reproduction developmental, duration: 19 days, F, Sprague-Dawley, Body Weight: Decreased mean body weight gain, 10% at 2 mg/kg/day and 33% at 5 mg/kg/day
[12] = reproduction developmental, duration: 67 days, F, Sprague-Dawley, Body Weight: 22% reduction in body weight gain during premating / food consumption reduced […]
[13] = reproduction developmental, duration: 84 days, M/F, Sprague-Dawley, Body Weight: >10% reduction in body weight
[14] = short-term, duration: 28 days, F, Sprague-Dawley, Hematological: Decreased red blood cells (8.9%), hemoglobin (10%), hematocrit (8.8%)
[15] = short-term, duration: 28 days, M/F, Sprague-Dawley, Endocrine: Decreased T4 level (82% in males / 48% in females)

O=S(=O)([O-])C(F)(F)C(F)(F)C(F)(F)C(F)(F)C(F)(F)C(F)(F)C(F)(F)C(F)(F)F.[K+] [Potassium perfluorooctanesulfonate]
LOAEL (Mus musculus; developmental, duration: 4 weeks, M, CD1, Developmental: Impaired retention of the task in the water maze test): 3 mg/kg-day | LOAEL (Mus musculus; developmental, duration: 1 days, M, CD1, Developmental: 24% decreased total spontaneous activity at 2 months of age / no significant alteration at 4 months): 0.75 mg/kg-day | LOAEL (Mus musculus; developmental, duration: 4 days, F, Developmental: 31% reduced percentage of live pups per litter on PND 15): 4.5 mg/kg-day | LOAEL (Mus musculus; developmental, duration: 5 days, F, ICR, Developmental: 6.1% increased cleft palate and 12.7% reduced body weight in fetuses): 50 mg/kg-day | NOAEL (Mus musculus; developmental, duration: 7 days, F, CD1): 6 mg/kg-day | LOAEL (Mus musculus; developmental, duration: 7 days, F, CD1, Developmental: Decreased distance traveled in open field test at 3 months of age): 6 mg/kg-day | LOAEL (Mus musculus; developmental, duration: 7 days, F, CD1, Developmental: Reduced body weight of pups on PNDs 4 and 8): 6 mg/kg-day | LOAEL (Mus musculus; [1]): 1 mg/kg-day | NOAEL (Mus musculus; [1]): 0.1 mg/kg-day | NOAEL (Mus musculus; developmental, duration: 17 days, F, CD1, Developmental: Increased incidences of sternal defects at ?5 mg/kg/day / reduced percentage of live fetuses (9%) at 20 mg/kg/day): 1 mg/kg-day | NOAEL (Mus musculus; developmental, duration: 17 days, F, CD1, Developmental: Peroxisome proliferation in fetal liver at ?5 mg/kg/day): 5 mg/kg-day | LOAEL (Mus musculus; developmental, duration: 17 days, F, ICR, Body Weight: 35% reduced maternal body weight + Developmental: 89% increased cleft palate, 25% reduced body weight in fetuses): 20 mg/kg-day | LOAEL (Mus musculus; developmental, duration: 18 days, F, ICR, Developmental: GDs 0-18: decreased survival (55.2%) at 10 mg/kg/day on PND 4, decreased neonatal BW, intracranial blood vessel dilatation, …): 10 mg/kg-day | NOAEL (Mus musculus; developmental, duration: 18 days, F, ICR, Hepatic: 60% increased absolute liver weight at ?10 mg/kg/day): 20 mg/kg-day | LOAEL (Mus musculus; developmental, duration: 21 days, F, Developmental: Decreased locomotion, muscle strength, and motor coordination in adult offspring): 0.3 mg/kg-day | NOAEL (Mus musculus; reproduction developmental, duration: 5 days, F, ICR, […] increased maternal relative liver weight): 50 mg/kg-day | NOAEL (Mus musculus; reproduction developmental, duration: 13 days, F, CD1, Endocrine: No alterations in serum T3 or T4 levels + Hepatic: 21% increase in absolute liver weight at ?3 mg/kg/day): 6 mg/kg-day | LOAEL (Mus musculus; [2]): 20 mg/kg-day | NOAEL (Mus musculus; [2]): 15 mg/kg-day | NOAEL (Mus musculus; reproduction developmental, duration: 17 days, F, CD1, Increase in absolute and relative liver weight and decreased serum triglycerides at ?5 mg/kg/day): 20 mg/kg-day | NOAEL (Mus musculus; short-term, duration: 14 days, M, CD1, Hepatic: ~70% increased absolute liver weight at ?5 mg/kg/day): 10 mg/kg-day | LOAEL (Mus musculus; [3]): 10 mg/kg-day | NOAEL (Mus musculus; [3]): 5 mg/kg-day | NOAEL (Mus musculus; short-term, duration: 21 days, M, CD1, Hepatic: Increased absolute liver weight at ?5 mg/kg/day): 10 mg/kg-day | LOAEL (Mus musculus; [4]): 0.00166 mg/kg-day | NOAEL (Mus musculus; [4]): 0.000166 mg/kg-day | LOAEL (Mus musculus; [5]): 0.0833 mg/kg-day | NOAEL (Mus musculus; [5]): 0.0083 mg/kg-day and 0.0167 mg/kg-day | LOAEL (Rattus norvegicus; acute, duration: 1 days, F, Sprague-Dawley, Endocrine: Transient decrease in serum TT4 (24, 38, and 53% after 2, 6, and 24 hours, respectively)): 15 mg/kg-day | NOAEL (Rattus norvegicus; acute, duration: 1 days, M, Sprague-Dawley): 10.3 mg/kg-day | NOAEL (Rattus norvegicus; chronic, duration: 14 weeks, F, Sprague-Dawley, Immunotoxicological: No histological alterations + Neurological: No histological alterations): 1.56 mg/kg-day | LOAEL (Rattus norvegicus; [6]): 1.33 mg/kg-day | NOAEL (Rattus norvegicus; [6]): 0.34 mg/kg-day | NOAEL (Rattus norvegicus; chronic, duration: 14 weeks, M, Sprague-Dawley, Hepatic: Increased absolute and relative liver weight / increased serum ALT / hepatocyte hypertrophy and vacuolation at 1.33/1.55 mg/kg/…): 1.33 mg/kg-day | LOAEL (Rattus norvegicus; [7]): 1.04 mg/kg-day | NOAEL (Rattus norvegicus; [7]): 0.25 mg/kg-day | NOAEL (Rattus norvegicus; chronic, duration: 104 weeks, M/F, Sprague-Dawley, Immunotoxicological: No histological alterations + Neurological: No histological alterations + Reproductive: No histological alterations): 1.04 mg/kg-day | LOAEL (Rattus norvegicus; [8]): 1.04 mg/kg-day | NOAEL (Rattus norvegicus; [8]): 0.25 mg/kg-day | LOAEL (Rattus norvegicus; chronic, duration: 91 days, M, Sprague-Dawley, Endocrine: 42% decrease in total T4 levels): 0.27 mg/kg-day | LOAEL (Rattus norvegicus; developmental, duration: 2 days, F, Sprague-Dawley, Developmental: Decreased neonatal survival (82% of controls on PND 1)): 25 mg/kg-day | LOAEL (Rattus norvegicus; developmental, duration: 2 days, F, Sprague-Dawley, Developmental: Increased neonatal mortality): 25 mg/kg-day | LOAEL (Rattus norvegicus; developmental, duration: 4 days, Sprague-Dawley, Body Weight: Weight loss during treatment when treated on GDs 2-5 (22%) or 6-9 (17%) + Developmental: Decreased neonatal survival (90% …): 25 mg/kg-day | LOAEL (Rattus norvegicus; developmental, duration: 19 days, F, Sprague-Dawley, Developmental: Increased incidences of cleft palate): 10 mg/kg-day | LOAEL (Rattus norvegicus; [9]): 2 mg/kg-day | NOAEL (Rattus norvegicus; [9]): 1 mg/kg-day | NOAEL (Rattus norvegicus; developmental, duration: 21 days, F, Sprague-Dawley): 1 mg/kg-day | LOAEL (Rattus norvegicus; developmental, duration: 21 days, F, Sprague-Dawley, Developmental: 2.1-fold increased fetal thyroid cell proliferation on GD 20): 1 mg/kg-day | LOAEL (Rattus norvegicus; [10]): 1 mg/kg-day | NOAEL (Rattus norvegicus; [10]): 0.3 mg/kg-day | LOAEL (Rattus norvegicus; developmental, duration: 67 days, F, Sprague-Dawley, >10% decrease in mean pup weight per litter on PND 5 at ?0.4 mg/kg/day / ~50% decrease mean pup survival per litter on PND 5 at ?1.6 mg/kg/…): 1.6 mg/kg-day | LOAEL (Rattus norvegicus; developmental, duration: 67 days, F, Sprague-Dawley, Developmental: >10% decrease in mean pup weight per litter on PND 5 at ?0.4 mg/kg/day / ~50% decrease mean pup survival per litter on PND 5…): 0.4 mg/kg-day | NOAEL (Rattus norvegicus; developmental, duration: 84 days, M/F, Sprague-Dawley, Developmental: Delayed eye opening and transient decrease in F2 pup body weight (13%) on LDs 7-14 at ?0.4 mg/kg/day / decreased pup …): 0.1 mg/kg-day | LOAEL (Rattus norvegicus; developmental, duration: 90 days, F, Sprague-Dawley, Increased pup mortality during PNDs 1-4): 1.6 mg/kg-day | LOAEL (Rattus norvegicus; developmental, duration: 91 days, F, Sprague-Dawley, Developmental: 19-36% reduced serum T4 levels in pups on PNDs 21-35 after gestationand/or postnatal-only exposure): 3.2 mg/kg-day | NOAEL (Rattus norvegicus; reproduction developmental, duration: 19 days, F, Sprague-Dawley): 10 mg/kg-day | LOAEL (Rattus norvegicus; [11]): 2 mg/kg-day | NOAEL (Rattus norvegicus; [11]): 1 mg/kg-day | LOAEL (Rattus norvegicus; reproduction developmental, duration: 19 days, F, Sprague-Dawley, Endocrine: Reduced total and free T4 and T3): 1 mg/kg-day | LOAEL (Rattus norvegicus; [12]): 2 mg/kg-day | NOAEL (Rattus norvegicus; [12]): 1.6 mg/kg-day | LOAEL (Rattus norvegicus; [13]): 3.2 mg/kg-day | NOAEL (Rattus norvegicus; [13]): 1.6 mg/kg-day | NOAEL (Rattus norvegicus; reproduction developmental, duration: 84 days, M/F, Sprague-Dawley, Reproductive: No alterations in mating and fertility parameters): 3.2 mg/kg-day | NOAEL (Rattus norvegicus; short-term, duration: 4 weeks, F, Sprague-Dawley, Immunotoxicological: No histological alterations + Neurological: No histological alterations): 1.77 mg/kg-day | NOAEL (Rattus norvegicus; short-term, duration: 4 weeks, M, Sprague-Dawley, Reproductive: No histological alterations): 1.51 mg/kg-day | NOAEL (Rattus norvegicus; short-term, duration: 7 days, M, Sprague-Dawley, Hepatic: Decreased serum cholesterol (38%) and triglyceride (55%) levels at 8.17 mg/kg/day): 8.17 mg/kg-day | NOAEL (Rattus norvegicus; short-term, duration: 7 days, M, Sprague-Dawley, Hepatic: Hepatocellular hypertrophy, increased liver weight, decreased serum cholesterol at ?1.79 mg/kg/day): 8.96 mg/kg-day | NOAEL (Rattus norvegicus; short-term, duration: 7 days, M, Wistar, Hepatic: 40% increase in absolute liver weight): 15 mg/kg-day | LOAEL (Rattus norvegicus; [14]): 7.01 mg/kg-day | NOAEL (Rattus norvegicus; [14]): 3.47 mg/kg-day | LOAEL (Rattus norvegicus; [15]): 1.23 mg/kg-day | NOAEL (Rattus norvegicus; [15]): 0.14 mg/kg-day | NOAEL (Rattus norvegicus; short-term, duration: 28 days, M, Sprague-Dawley, Hepatic: Hepatocellular hypertrophy and decreased serum cholesterol levels at ?1.54 mg/kg/day): 7.34 mg/kg-day | NOAEL (Rattus norvegicus; short-term, duration: 28 days, M, Sprague-Dawley, Hepatic: Increased relative liver weight / hepatocellular hypertrophy in males at 5.89 mg/kg/day): 5.89 mg/kg-day | NOAEL (Rattus norvegicus; subchronic, duration: 67 days, F, Sprague-Dawley, Hepatic: 16% reduction in serum total cholesterol on PND 5 at ?0.4 mg/kg/day / increased liver weight in dams at ?0.8 mg/kg/day + …): 2 mg/kg-day
